Earlier results in patent US8263630B2, “1,2,3-triazoles as 11-beta hydroxysteroid dehydrogenase type I inhibitors” (Bristol-Myers Squibb Company, priority 2008, dated 2012).

Target: T1, 11beta-HSD1 (Homo sapiens, UniProt P28845)
T1 construct: host or cells: human patients (liver), in vivo
Settings: mildly overweight individuals with type 2 diabetes; seven day treatment; versus placebo

T1 sequence (P28845 whole entry): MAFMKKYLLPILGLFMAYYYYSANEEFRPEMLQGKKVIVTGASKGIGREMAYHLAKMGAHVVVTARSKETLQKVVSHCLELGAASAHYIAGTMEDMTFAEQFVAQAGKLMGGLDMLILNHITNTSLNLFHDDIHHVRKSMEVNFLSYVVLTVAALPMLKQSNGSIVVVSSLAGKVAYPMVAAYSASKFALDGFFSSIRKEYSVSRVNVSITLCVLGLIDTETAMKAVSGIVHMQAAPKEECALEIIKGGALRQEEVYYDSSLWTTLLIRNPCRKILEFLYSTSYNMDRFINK

In the case of `CC1(C)[C@@H](OC(=O)CCC(=O)O)CC[C@]2(C)[C@H]3C(=O)C=C4[C@@H]5C[C@@](C)(C(=O)O)CC[C@]5(C)CC[C@@]4(C)[C@]3(C)CC[C@@H]12` [carbenoxolone], the hepatic glucose production is listed as “decrease in hepatic glucose production”.
